Measured values published in patent publication US20220251081A1, “HETEROBICYCLIC INHIBITORS OF MAT2A AND METHODS OF USE FOR TREATING CANCER” (priority 2019, published 2022).

Key:
MAT2A homodimer = target: T1, MAT2A homodimer (Homo sapiens, UniProt P31153); experiment: Biochemical assay: inhibition of recombinant MAT2A homodimer (phosphate release, PiColorLock Gold); details: MAT2A IC50 score; read-out: Enzyme Inhibition
T1 construct: inferred from Ni sepharose purification and imidazole elution; made in house; host or cells: Sf9 insect cells, recombinant baculovirus (Bac to Bac, pFASTBAC1 vector)
Experimental: Mat2A protein was expressed by recombinant baculovirus in SF9 infected cells using the Bac to Bac system cloned into the pFASTBAC1 vector (Invitrogen, Carlsbad, Calif.). Recombinant MAT2A was isolated from the cell lysate of 150 g of infected cells using HP Ni sepharose column chromatography. Recombinant MAT2A homodimer was eluted with 250 and 500 mM imidazole, and fractions containing MAT2A were identified by sodium dodecyl sulfate polyacrylamide gel electrophoresis and pooled.
For determination of the inhibitory potency of compounds against the MAT2A homodimer, protein was diluted to 4 μg/mL in assay buffer (50 mM Tris, pH 8.0, 50 mM KCl, 15 mM MgCl2, 0.3 mM EDTA, 0.005% [w/v] bovine serum albumin [BSA]). Test compound was prepared in 100% dimethyl sulfoxide (DMSO) at 50× the desired final concentration. A 1 μL volume of compound dilution was added to 40 μL of enzyme dilution and the mixture was allowed to equilibrate for 60 minutes at 25° C. The enzymatic assay was initiated by the addition of 10 μL of substrate mix (500 μM ATP, pH 7.0, 40 μM L-methionine in 1× assay buffer), and the mixture was incubated for a further 60 minutes at 25° C. The reaction was halted and the liberated phosphate released by the enzyme in stoichiometric amounts by the production of S-adenosyl methionine (SAM) was measured using the PiColorLock Gold kit (Innova Biosciences, UK). Absolute product amounts were determined by comparison to a standard curve of potassium phosphate buffer, pH 8.0.

HCT116 MTAP +/+ = experiment: Inhibition of cellular proliferation, 4 days, Cell Titer Glo, HCT116 MTAP+/+; format: cell-based; details: Homo sapiens, HCT-116, 96 h, IC50 score, read-out: 4 Day Relative Growth Inhibition (MTAP +/+)
Experimental: (§1) Assay for Inhibition of Cellular Proliferation
(§2) Test compound impact on cancer cell growth was assessed by treating cancer cells with compound for 4 days and then measuring proliferation using an ATP-based cell proliferation readout (Cell Titer Glo, Promega Corporation).
(§3) In a typical assay an isogenic pair of HCT116 human colon carcinoma cell lines which vary only in MTAP deletion status (HCT116 MTAP +/+ and HCT116 MTAP−/−) were plated in 96-well dishes at appropriate cell density. Following 24 hours, cells were then treated with the candidate MAT2A inhibitor. Prior to addition to cells, the compound was first serially diluted in 100% DMSO, typically as a 3-fold serial dilution starting at 500× top dose with 10 dose points including DMSO only control. Compound was then transferred to a working stock plate in cell culture media by adding 5 μL of compound in DMSO to 495 μL of cell culture media. This working stock was then added to cells via a further 5-fold dilution, by adding 25 μL of working stock to 100 μL of cells in culture media. Following compound addition, cells were incubated at 37° C./5% C02 for 4 days.
(§4) To measure inhibition of cellular proliferation, cells were allowed to equilibrate to room temperature for 30 minutes, and were then treated with 125 μL of Cell Titer Glo reagent. The plate was then covered with aluminum foil and shaken for 15 minutes to ensure complete mixing and full cell lysis. Luminescent signal was then measured using a plate-based luminometer Veritas version 1.9.2 using ATP standard curve to confirm assay reproducibility from run to run. This luminescence measure was converted to a proliferation index by subtracting from each data point the ATP luminescence signal measured from a bank (no cells) well and dividing by the ATP luminescence signal measured in 0.2% DMSO control well adjusted for signal in blank well. Compound activity was then represented as a percentage change in proliferation relative to a within-plate DMSO control against log 10 of compound concentration in molar (M) units.

HCT116 MTAP-/- = experiment: Inhibition of cellular proliferation, 4 days, Cell Titer Glo, HCT116 MTAP-/-; format: cell-based; details: Homo sapiens, HCT-116, 96 h, IC50 score, read-out: 4 Day Relative Growth Inhibition (MTAP −/−)
Experimental: as §1, §2, §3, §4

[1] = tested on: SAM in HCT116 human colon carcinoma cell line with deleted MTAP gene; experiment: Cellular assay of target engagement (SAM): SAM level by LC-MS/MS after 72 hrs; format: cell-based; details: HCT-116, IC50 score, read-out: Cell 72 h SAM Inhibition (MTAP −/−)
Experimental: Cellular Assay of Target Engagement (SAM)
Measurement of MAT2A activity in cells was made by direct quantitation of the abundance of the product of its enzymatic activity, SAM. Cancer cells were treated with candidate MAT2A inhibitors for a suitable incubation period, and the cells were then lysed using a reagent which quenched any further enzyme activity. Soluble metabolites including SAM were collected and SAM itself was directly measured from the lysate using quantitative LC-MS/MS.
A typical assay was performed using an HCT116 human colon carcinoma cell line which was genetically engineered to delete the MTAP gene (commercially available from Horizon Discovery). This cell line was utilized because it was determined that loss of the MTAP gene predicts sensitivity to MAT2A inhibitors. Cells were plated in 96-well dishes at appropriate cell density. Following 24 hours, cells were then treated with the candidate MAT2A inhibitor. Prior to addition to cells, the compound was first serially diluted in 100% DMSO, typically as a 3-fold serial dilution starting at 500× top dose with 10 dose points including DMSO only control. Compound was then transferred to a working stock plate in cell culture media by adding 5 μL of compound in DMSO to 495 μL of cell culture media. This working stock was then added to cells via a further 5-fold dilution, by adding 25 μL of working stock to 100 μL of cells in culture media. Following compound addition, cells were incubated at 37° C./5% CO2 for 72 hrs.
To quantitate SAM levels following compound treatment, cells were gently washed once in ammonium carbonate buffer (75 mM at pH 7.4), placed on dry ice, and lysed with metabolite extraction buffer (80% cold methanol and 20% water (v/v) with acetic acid at 1M final concentration with 200 ng/mL deuterated d3-SAM as internal control). Following centrifugation at 4° C. at 3,200 rpm for 30 minutes, the supernatant was collected and stored at −80° C. until analysis by Liquid Chromatography with tandem Mass Spectrometry (LC-MS/MS). LC-MS/MS analysis was performed using an API6500 Mass Spectrometer (Sciex, Framingham, Mass., USA) operating in positive ion spray mode and equipped with a Waters UPLC Acquity (Waters, Milford, Mass., USA) BEH Amide column. Multiple Reaction Monitoring data was acquired for SAM and the d3-SAM standard, using a mass transition pair at m/z 399.2→250.1 and 402.2→250.1, respectively. In a typical LC-MS/MS analysis, the initial flow rate was 0.5 ml/min of 25% mobile phase A (acetonitrile and water at 5:95 (v/v) with 1% formic acid and 10 mM ammonium acetate) and 75% mobile phase B (acetonitrile and water at 95:5 (v/v) with 1% formic acid and 10 mM ammonium acetate), 0.2-0.5 minutes with 75%-35% mobile phase B, 25%-65% mobile phase A, at 0.5 min 65% mobile phase A and 35% mobile phase B, 1.0-1.1 minutes with 35%-75% mobile phase B, 65%-25% mobile phase A, at 1.1 min 25% mobile phase A and 75% mobile phase B with a total run time of 1.5 minutes.

T1 sequence (P31153 whole entry): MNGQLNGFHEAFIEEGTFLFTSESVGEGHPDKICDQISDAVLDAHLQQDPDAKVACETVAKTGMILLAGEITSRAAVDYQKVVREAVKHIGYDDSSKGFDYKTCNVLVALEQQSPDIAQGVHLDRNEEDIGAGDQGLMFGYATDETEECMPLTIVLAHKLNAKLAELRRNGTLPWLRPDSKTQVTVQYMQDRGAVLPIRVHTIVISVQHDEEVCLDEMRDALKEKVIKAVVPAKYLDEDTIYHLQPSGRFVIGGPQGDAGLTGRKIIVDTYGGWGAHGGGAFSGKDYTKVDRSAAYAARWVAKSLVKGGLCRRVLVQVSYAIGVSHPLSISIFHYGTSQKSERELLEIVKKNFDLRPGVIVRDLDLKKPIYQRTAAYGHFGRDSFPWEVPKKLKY

Compound | IC50 (MAT2A homodimer) [nM] | IC50 (HCT116 MTAP +/+) [nM] | IC50 (HCT116 MTAP-/-) [nM] | IC50 [1] [nM]
COc1ccc(-c2cc3cnc(NCC(F)(F)F)nc3n(-c3ccc(O)cc3)c2=O)cc1 [Example 106] | 100 to 1000 | ≥ 1000 | 100 to 1000 | 100 to 1000
Cn1cc2cc(-c3cc4ccc(OCC(F)(F)F)nc4n(-c4ccc(Cl)cc4)c3=O)ccc2n1 [Example 119, 1-(4-chlorophenyl)-3-(2-methyl-2H-indazol-5-yl)-7-(2,2,2-trifluoroethoxy)-1,8-naphthyridin-2(1H)-one] | < 100 | ≥ 1000 | < 100 | < 100
COc1ccc(-n2c(=O)c(-c3ccc4nn(C)cc4c3)cc3ccc(OCC(F)(F)F)nc32)cn1 [Example 123] | < 100 | ≥ 1000 | < 100 | < 100
COc1ccc(-c2cc3ccc(NCC(F)(F)F)nc3n(-c3ccc(OC)cc3)c2=O)cc1 [Example 131] | < 100 | ≥ 1000 | < 100 | < 100
CCOc1ccc2cc(-c3ccc4nn(C)cc4c3)c(=O)n(-c3ccc(Cl)cc3)c2n1 [Example 138] | < 100 | 100 to 1000 | < 100 | < 100
CCOc1ccc2cc(-c3ccc4nn(C)cc4c3)c(=O)n(-c3ccc(OC)cc3)c2n1 [Example 142] | < 100 | ≥ 1000 | < 100 | < 100
CCOc1ccc2cc(-c3ccc4nn(C)cc4c3)c(=O)n(-c3ccc(NC)nc3)c2n1 [Example 144] | < 100 | 100 to 1000 | < 100 | < 100
CCNc1ccc(-n2c(=O)c(-c3ccc4nn(C)cc4c3)cc3ccc(OCC)nc32)cn1 [Example 145] | < 100 | ≥ 1000 | < 100 | < 100
CCOc1ccc2cc(-c3ccc4nncn4c3)c(=O)n(-c3ccc(C4CC4)nc3)c2n1 [Example 215] | < 100 | – | < 100 | < 100
[2H]C([2H])([2H])Oc1ccc(-n2c(=O)c(-c3ccc4nn(C)cc4c3)cc3ccc(O[C@H](C)C(F)(F)F)nc32)cc1 [Example 304] | < 100 | – | – | < 100

Other lines, results leading:

IC50 (MAT2A homodimer) [nM] | IC50 (HCT116 MTAP +/+) [nM] | IC50 (HCT116 MTAP-/-) [nM] | IC50 [1] [nM] | Compound
< 100 | ≥ 1000 | 100 to 1000 | < 100 | COc1ccc(-c2cc3cnc(NCC(F)(F)F)nc3n(-c3ccc(-c4nc[nH]n4)cc3)c2=O)cc1 [Example 101, 8-(4-(1H-1,2,4-triazol-3-yl)phenyl)-6-(4-methoxyphenyl)-2-(2,2,2-trifluoroethylamino)pyrido[2,3-d]pyrimidin-7(8H)-one]
< 100 | ≥ 1000 | 100 to 1000 | < 100 | COc1ccc(-c2cc3cnc(NCC(F)(F)F)nc3n(-c3ccc(OC)cc3)c2=O)cc1 [Example 115]
< 100 | ≥ 1000 | < 100 | < 100 | COc1ccc(-n2c(=O)c(-c3ccc4ncccc4c3)cc3cnc(NCC(F)(F)F)nc32)cc1 [Example 116]
< 100 | ≥ 1000 | < 100 | < 100 | COc1ccc(-c2cc3cnc(NCC(F)(F)F)nc3n(-c3ccc(C4CC4)cc3)c2=O)cc1 [Example 118]
< 100 | ≥ 1000 | < 100 | < 100 | Cn1cc2cc(-c3cc4ccc(NCC(F)(F)F)nc4n(-c4ccc(OC(F)F)cc4)c3=O)ccc2n1 [Example 120]
< 100 | ≥ 1000 | < 100 | < 100 | Cn1cc2cc(-c3cc4ccc(OC5CC5)nc4n(-c4ccc(Cl)cc4)c3=O)ccc2n1 [Example 121]
< 100 | 100 to 1000 | < 100 | < 100 | Cn1cc2cc(-c3cc4ccc(OCC(F)F)nc4n(-c4ccc(Cl)cc4)c3=O)ccc2n1 [Example 122]
< 100 | 100 to 1000 | < 100 | < 100 | COc1ccc(-n2c(=O)c(-c3ccc4nn(C)cc4c3)cc3ccc(OCC(F)F)nc32)cn1 [Example 124]
< 100 | ≥ 1000 | 100 to 1000 | < 100 | COc1ccc(-c2cc3cnc(NCC(F)(F)F)nc3n(-c3ccc(OC(F)F)cc3)c2=O)cc1 [Example 127]
< 100 | ≥ 1000 | < 100 | < 100 | COc1ccc(-c2cc3cnc(NCC(F)(F)F)nc3n(-c3ccc(CCO)cc3)c2=O)cc1 [Example 129]
< 100 | ≥ 1000 | 100 to 1000 | < 100 | COc1ccc(-c2cc3ccc(NCC(F)(F)F)nc3n(-c3ccc(OC(F)F)cc3)c2=O)cc1 [Example 130, 1-(4-(difluoromethoxy)phenyl)-3-(4-methoxyphenyl)-7-(2,2,2-trifluoroethylamino)-1,8-naphthyridin-2(1H)-one]
< 100 | ≥ 1000 | < 100 | < 100 | Cn1cnc2ccc(-c3cc4ccc(NCC(F)(F)F)nc4n(-c4ccc(OC(F)F)cc4)c3=O)cc21 [Example 135]
< 100 | ≥ 1000 | 100 to 1000 | < 100 | CCOc1ccc2cc(-c3ccc(OC)cc3)c(=O)n(-c3ccc(OC(F)F)cc3)c2n1 [Example 139]
< 100 | 100 to 1000 | < 100 | < 100 | CCOc1ccc2cc(-c3ccc4nn(C)cc4c3)c(=O)n(-c3ccc(OC(F)F)cc3)c2n1 [Example 140]
